9 compounds from ChEMBL document CHEMBL1938237, “Bioactive lipids from the sponge Spirastrella abata” (Bioorg Med Chem Lett, 2012) can be followed below.

Converted amounts (≈) assume the structure as drawn. A value given as a limit tells only on which side of the number the result lay.

In test [1] the test system is Trichophyton mentagrophytes. As to the kind of experiment: Antifungal activity against Trichophyton mentagrophytes IFO 40996. The class given is functional.
The next test deals with Aspergillus fumigatus. The experiment in a line: Antifungal activity against Aspergillus fumigatus HIC 6094. The format is functional.
Another test relates to Candida albicans. As to the kind of experiment: Antifungal activity against Candida albicans ATCC 10231. The format is functional.
The subject of the next test is Bacillus subtilis. As to the kind of experiment: Antibacterial activity against Bacillus subtilis ATCC 6633. The class given is functional.
Another test concerns K562. As to the kind of experiment: Cytotoxicity against human K562 cells. The class given is functional. The note with it: read-out: LC50 (the source's name).
A further test relates to Micrococcus luteus. As to the kind of experiment: Antibacterial activity against Micrococcus luteus IFO 12708. The format is functional.
Test [2] can be described thus: Inhibition of Na+/K+ ATPase.
The next test concerns Escherichia coli. The experiment in a line: Antibacterial activity against Escherichia coli ATCC 35270. The class given is functional.
The test system of the next test is Trichophyton rubrum. The experiment in a line: Antifungal activity against Trichophyton rubrum IFO 9185. The class given is functional.
In another test the test system is Salmonella typhimurium. As to the kind of experiment: Antibacterial activity against Salmonella Typhimurium ATCC 14028. The format is functional, Salmonella enterica subsp. enterica serovar Typhimurium. The conditions noted are these: Salmonella enterica.
The next test deals with Staphylococcus aureus. The experiment in a line: Antibacterial activity against Staphylococcus aureus ATCC 6538p. The class given is functional.
Test [3] is described as follows: Inhibition of isocitrate lyase.
The subject of another test is Proteus vulgaris. As to the kind of experiment: Antibacterial activity against Proteus vulgaris ATCC 3851. The class given is functional.

`CCCCCCCCCCC/C=C/C[C@H](OS(=O)(=O)O)[C@H](O)[C@H](N)CO`: the MIC (in general, the least concentration at which growth counts as inhibited) is 50 µg/mL (≈ 126 µM) in test [1]; 100 µg/mL (≈ 253 µM) with Aspergillus fumigatus; 50 µg/mL (≈ 126 µM) in the test with Candida albicans; 6 µg/mL (≈ 15.2 µM) against Bacillus subtilis; 25 µg/mL (≈ 63.2 µM) against Micrococcus luteus; above 100 µg/mL against Escherichia coli. Besides, the MIC is above 100 µg/mL against Trichophyton rubrum, 100 µg/mL (≈ 253 µM) against Salmonella typhimurium, 50 µg/mL (≈ 126 µM) against Staphylococcus aureus and 25 µg/mL (≈ 63.2 µM) with Proteus vulgaris. Moreover, the CC50 in the test with K562 was 8 µM. Besides, the results for the half-inhibitory concentration (IC50) in test [2] and in test [3] were 25 µM and 2 µM, respectively.
Regarding `CCCCCCCCCC/C=C/C[C@H](OS(=O)(=O)O)[C@H](O)[C@H](N)CO`, the MIC in test [1] was above 100 µg/mL; against Aspergillus fumigatus it was above 100 µg/mL; with Candida albicans it was above 100 µg/mL; against Bacillus subtilis it was 12 µg/mL (≈ 31.5 µM); with Micrococcus luteus, 100 µg/mL (≈ 262 µM); with Escherichia coli, above 100 µg/mL. Moreover, the minimal inhibitory concentration (MIC) against Trichophyton rubrum was above 100 µg/mL; against Salmonella typhimurium, above 100 µg/mL; in the test with Staphylococcus aureus, above 100 µg/mL; against Proteus vulgaris it was 25 µg/mL (≈ 65.5 µM). For the same compound, the CC50 in the test with K562 is 7 µM. Moreover, the half-maximal inhibitory concentration (IC50) (as a rule, the midpoint of a concentration-inhibition curve) is 21 µM in [2] and 20 µM in [3].
With `CC(C)CCCCCCCC/C=C/C[C@H](OS(=O)(=O)O)[C@H](O)[C@H](N)CO`, the MIC is above 100 µg/mL in [1]; above 100 µg/mL against Aspergillus fumigatus; above 100 µg/mL against Candida albicans; 100 µg/mL (≈ 253 µM) against Bacillus subtilis; 100 µg/mL (≈ 253 µM) against Micrococcus luteus; above 100 µg/mL against Escherichia coli. The MIC against Trichophyton rubrum was above 100 µg/mL; in the test with Salmonella typhimurium it was 100 µg/mL (≈ 253 µM); in the test with Staphylococcus aureus, above 100 µg/mL; with Proteus vulgaris it was 100 µg/mL (≈ 253 µM). For the same compound, the CC50 with K562 came to 8 µM. Also, the IC50 in [2] was 21 µM; in test [3] it was 24 µM.
With `O=C(O)CC[N+](=O)[O-]`, 1 µM corresponded to half-maximal inhibition in test [3] (IC50).
In the case of `CCCCCC[C@H]1C[C@H]1CCCCCCCCCC(=O)OC[C@@H](O)COP(=O)([O-])OCC(O)CO.[Na+]` (relative stereo), the MIC in the test on Aspergillus fumigatus was above 100 µg/mL; against Candida albicans, 13 µg/mL; against Staphylococcus aureus, above 100 µg/mL; in the test on Proteus vulgaris, above 100 µg/mL. Besides, in the test with K562, the CC50 is 4 µM. The IC50 in test [2] came out at 4 µM; in test [3], 87 µM.
`C[C@@H]1[C@H](O)[C@@H](C)/C=C/C=C/C=C/C=C/C=C/C=C/C=C/[C@H](O[C@@H]2O[C@H](C)[C@@H](O)[C@H](N)[C@@H]2O)C[C@@H]2O[C@](O)(C[C@@H](O)C[C@@H](O)[C@H](O)CC[C@@H](O)C[C@@H](O)CC(=O)O[C@H]1C)C[C@H](O)[C@H]2C(=O)O` [AMPHOTERICIN B]: the minimum inhibitory concentration (MIC) in [1] was determined as 2 µg/mL (≈ 2.16 µM); against Aspergillus fumigatus it was 1 µg/mL (≈ 1.08 µM); in the test on Candida albicans, 1 µg/mL (≈ 1.08 µM); with Trichophyton rubrum, 2 µg/mL (≈ 2.16 µM).
With `CC1(C)S[C@@H]2[C@H](NC(=O)[C@H](N)c3ccccc3)C(=O)N2[C@H]1C(=O)O` [AMPICILLIN], the MIC came out at 2 µg/mL (≈ 5.72 µM) against Bacillus subtilis; 2 µg/mL (≈ 5.72 µM) against Micrococcus luteus; 6 µg/mL (≈ 17.2 µM) with Escherichia coli; 2 µg/mL (≈ 5.72 µM) against Salmonella typhimurium; 1 µg/mL (≈ 2.86 µM) in the test with Staphylococcus aureus; 1 µg/mL (≈ 2.86 µM) against Proteus vulgaris.
In the case of `COc1cccc2c1C(=O)c1c(O)c3c(c(O)c1C2=O)C[C@@](O)(C(=O)CO)C[C@@H]3O[C@H]1C[C@H](N)[C@H](O)[C@H](C)O1` [DOXORUBICIN], in the test on K562, the CC50 stood at 7 µM.
In test [2], `C[C@@H]1O[C@@H](O[C@H]2C[C@@H](O)[C@]3(CO)[C@H]4[C@H](O)C[C@]5(C)[C@@H](C6=CC(=O)OC6)CC[C@]5(O)[C@@H]4CC[C@]3(O)C2)[C@H](O)[C@H](O)[C@H]1O` [OUABAIN] gave an IC50 of 4 µM.
